Results published in patent publication US20110045101A1, “FUNGICIDAL SUBSTITUTED AZOLES” (E.I. Du Pont De Nemours and Company, priority 2009, published 2011).
Marks after values point to notes of the source that are not given here.

How the values were obtained:
Format in all cases: in vivo
Details in all cases: 100 = 100% disease control
Botrytis cinerea = assay: Test C: tomato Botrytis on tomato seedlings, sprayed the day before inoculation, visual disease rating
Method in brief: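 Spray to run-off on tomato seedlings; test conc. 200 ppm (≈500 g/ha), some entries 40 ppm. Formulation: acetone 3% of final vol., then acetone/water 50:50 + 250 ppm polyhydric alcohol ester surfactant.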

Alternaria solani = assay: Test D: tomato early blight, sprayed the day before inoculation, visual disease rating
Method in brief: (§1)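 Spray suspension: acetone 3% of final volume, then 50/50 acetone/water plus 250 ppm Trem® 014. Applied to run-off on seedlings at 200 ppm (≈500 g/ha); starred entries tested at 40 ppm.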

Septoria nodorum = assay: Test F: wheat glume blotch on wheat seedlings, sprayed the day before inoculation, visual disease rating
Method in brief: as §1

Septoria tritici = assay: Test G: wheat leaf blotch on wheat seedlings, sprayed the day before inoculation, visual disease rating
Method in brief: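 Compounds dissolved in acetone (3% of final volume), then suspended in 50/50 acetone/water with 250 ppm Trem® 014 and sprayed to run-off on seedlings at 200 ppm (≈500 g/ha) or 40 ppm where marked. Inoculation with spores followed next day; visual rating after 48 h saturated at 24° C plus 19 days at 20° C.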

[1] = system: Puccinia recondita f. sp. tritici; assay: Test H: wheat leaf rust, test suspension sprayed after inoculation of wheat seedlings, visual disease rating
Method in brief: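 Wheat seedlings inoculated with P. recondita spores, held 24 h saturated at 20 °C, then 2 days in growth chamber at 20 °C; compound suspension (acetone/water with Trem 014) sprayed to run-off afterwards. Rated visually; 200 ppm (≈500 g/ha) unless marked *, which denotes 40 ppm.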

[2] = system: Puccinia recondita f. sp. tritici; assay: Test I: wheat leaf rust on wheat seedlings, sprayed the day before inoculation, visual disease rating
Method in brief: as §1

[3] = system: Erysiphe graminis f. sp. tritici; assay: Test J: wheat powdery mildew on wheat seedlings, sprayed the day before inoculation, visual disease rating
Method in brief: as §1

[4] = 200 ppm, 0 = no control relative to controls
[5] = 40 ppm (marked *), 0 = no control

| Compound | Test C disease control rating (Botrytis cinerea; [4]) | Test D disease control rating (Alternaria solani; [4]) | Test F disease control rating (Septoria nodorum; [4]) | Test G disease control rating (Septoria tritici; [4]) | Test H disease control rating [1, 4] | Test I disease control rating [2, 4] | Test J disease control rating [3, 4] | other results |
| --- | --- | --- | --- | --- | --- | --- | --- | --- |
| Cc1ncn(-c2ccc(Cl)c(F)c2)c1-c1scnc1Cl [compound 376] | 90% | 0% | 0% | 78% | 0% | 54% | 67% | – |
| COc1cncc(F)c1-c1c(Cl)nc(Cl)n1-c1ccc(Cl)c(F)c1 [compound 435] | 99% | 24% | 0% | 99% | 0% | 68% | 0% | – |
| Cc1ncc(-c2ccc(Cl)cc2)n1-c1c(F)cc([N+](=O)[O-])cc1F [compound 700] | – | – | – | – | – | – | – | Test C disease control rating (Botrytis cinerea; 40 ppm (marked *)): 93* %; Test D disease control rating (Alternaria solani; 40 ppm (marked *)): 0* %; Test F disease control rating (Septoria nodorum; 40 ppm (marked *)): 0* %; Test G disease control rating (Septoria tritici; 40 ppm (marked *)): 53* %; Test H disease control rating ([1]; 40 ppm (marked *)): 0* %; Test I disease control rating ([2]; 40 ppm (marked *)): 0* %; Test J disease control rating ([3]; 40 ppm (marked *)): 0* % |
| COc1ccc(F)c(-c2c(Cl)nc(C)n2-c2cccc(OC(F)F)c2)c1F [compound 426] | 100% | 100% | 100% | 100% | 27% | 100% | 100% | – |
| Cc1nc(Br)c(Cc2ccc(F)cc2F)n1-c1ccc(Cl)cc1 [compound 404] | 100% | 0% | 0% | 99% | 0% | 97% | 98% | – |
| COc1ccc(Cl)c(-c2c(Cl)ncn2-c2ccc(Cl)cc2)c1F [compound 482] | 99% | 99% | 69% | 95% | 0% | 91% | 99% | – |
| Fc1ccc(-n2c(Br)nc(Br)c2-c2c(F)ccc(F)c2F)cc1 [compound 384] | – | – | – | – | – | – | – | Test C disease control rating (Botrytis cinerea; [5]): 100* %; Test D disease control rating (Alternaria solani; [5]): 99* %; Test F disease control rating (Septoria nodorum; [5]): 0* %; Test G disease control rating (Septoria tritici; [5]): 95* %; Test H disease control rating [1, 5]: 0* %; Test I disease control rating [2, 5]: 67* %; Test J disease control rating [3, 5]: 95* % |
| CC(=O)Nc1ccc(-n2c(Cl)nc(Cl)c2-c2c(F)cccc2F)cc1 [compound 637] | – | – | – | – | – | – | – | Test C disease control rating (Botrytis cinerea; 40 ppm (marked *)): 97* %; Test D disease control rating (Alternaria solani; 40 ppm (marked *)): 0* %; Test F disease control rating (Septoria nodorum; 40 ppm (marked *)): 0* %; Test G disease control rating (Septoria tritici; 40 ppm (marked *)): 92* %; Test H disease control rating ([1]; 40 ppm (marked *)): 0* %; Test I disease control rating ([2]; 40 ppm (marked *)): 65* %; Test J disease control rating ([3]; 40 ppm (marked *)): 0* % |
| COc1cc(OC)cc(-n2c(C)nc(Br)c2Cc2c(F)cc(F)cc2F)c1 [compound 535] | 0% | 0% | 0% | 2% | 0% | 0% | 0% | – |
| COc1cc(F)c(-n2c(Cl)nc(C)c2-c2ccc(Cl)nc2)c(F)c1 [Compound 696, 2-chloro-5-[2-chloro-1-(2,6-difluoro-4-methoxyphenyl)-4-methyl-1H-imidazol-5-yl]pyridine] | – | – | – | – | – | – | – | pest or weed control at 40 ppm (Botrytis cinerea; Botrytis cinerea, 120 h, 40 ppm (marked *)): 100%; pest or weed control at 40 ppm (Alternaria solani; Alternaria solani, 168 h, 40 ppm (marked *)): 100%; pest or weed control at 40 ppm (Septoria nodorum; Parastagonospora nodorum, 264 h, 40 ppm (marked *)): 100%; pest or weed control at 40 ppm (Septoria tritici; Zymoseptoria tritici, 504 h, 40 ppm (marked *)): 99%; pest or weed control at 40 ppm ([1]; Puccinia recondita, 96 h, 40 ppm (marked *)): 99%; pest or weed control at 40 ppm ([2]; Puccinia recondita, 168 h, 40 ppm (marked *)): 99%; pest or weed control at 40 ppm ([3]; Blumeria graminis, 168 h, 40 ppm (marked *)): 100% |
| Cc1nc(Cl)n(-c2ccc(F)cc2Cl)c1-c1ccc(Cl)cc1 [compound 503] | 99% | 99% | 99% | 96% | 0% | 100% | 100% | – |
| COc1cc(F)c(-c2c(Cl)nc(Cl)n2-c2ccc(OC)nc2)c(F)c1 [compound 516] | 97% | 100% | 100% | 100% | 100% | 100% | 100% | – |
| COc1cc(F)c(-c2c(Cl)nc(Cl)n2-c2cc(C)cnc2Cl)c(F)c1 [compound 677] | 100% | 100% | 100% | 99% | 100% | 100% | 100% | – |
| COc1cc(F)c(-n2c(Br)nc(C)c2-c2cccc(F)c2)c(F)c1 [compound 687] | – | – | – | – | – | – | – | Test C disease control rating (Botrytis cinerea; 40 ppm (marked *)): 100* %; Test D disease control rating (Alternaria solani; 40 ppm (marked *)): 100* %; Test F disease control rating (Septoria nodorum; 40 ppm (marked *)): 99* %; Test G disease control rating (Septoria tritici; 40 ppm (marked *)): 98* %; Test H disease control rating ([1]; 40 ppm (marked *)): 100* %; Test I disease control rating ([2]; 40 ppm (marked *)): 100* %; Test J disease control rating ([3]; 40 ppm (marked *)): 100* % |
| COc1cc(F)c(-c2c(Cl)nc(Cl)n2-c2cncc(Br)c2)c(F)c1 [compound 678] | 100% | 100% | 100% | 99% | 100% | 100% | 100% | – |
| Cc1ccc(-n2c(Br)nc(Br)c2-c2c(F)ccc(F)c2F)cc1 [compound 461] | – | – | – | – | – | – | – | Test C disease control rating (Botrytis cinerea; 40 ppm (marked *)): 99* %; Test D disease control rating (Alternaria solani; 40 ppm (marked *)): 99* %; Test F disease control rating (Septoria nodorum; 40 ppm (marked *)): 0* %; Test G disease control rating (Septoria tritici; 40 ppm (marked *)): 94* %; Test H disease control rating ([1]; 40 ppm (marked *)): 0* %; Test I disease control rating ([2]; 40 ppm (marked *)): 97* %; Test J disease control rating ([3]; 40 ppm (marked *)): 98* % |
| Cc1nc(Cl)n(-c2ccc(Cl)cn2)c1-c1c(F)cccc1F [compound 321] | 100% | 100% | 100% | 100% | 83% | 100% | 100% | – |
| COc1ccc(F)c(-c2c(Cl)nc(C)n2-c2ccc(Cl)nc2)c1F [compound 738] | 100% | 100% | 100% | 100% | 96% | 100% | 100% | – |
| Fc1cccc(F)c1-c1c(Cl)nc(Br)n1-c1ccc2ncccc2c1 [compound 327] | – | – | – | – | – | – | – | Test C disease control rating (Botrytis cinerea; [5]): 99* %; Test D disease control rating (Alternaria solani; [5]): 98* %; Test F disease control rating (Septoria nodorum; [5]): 0* %; Test G disease control rating (Septoria tritici; [5]): 94* %; Test H disease control rating [1, 5]: 0* %; Test I disease control rating [2, 5]: 86* %; Test J disease control rating [3, 5]: 0* % |
